Article PMC7180948, “New Insights into 4-Anilinoquinazolines as Inhibitors of Cardiac Troponin I–Interacting Kinase (TNNi3K)” (Molecules, 2020)

Assays:
Assay in all cases: biochemical
Design in all cases: KINOMEscan competition binding panel (Eurofins DiscoverX), single concentration, % inhibition
Details in all cases: read-out: 7 at 1 µM % inhibition
[1] = target: T1, ABL1(F317L)-nonphosphorylated (Homo sapiens, UniProt P00519, F317L)
T1 construct: nonphosphorylated
Method in brief: (§1)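 Selectivity profile from a KINOMEscan run against >400 human kinases; test concentration 1 µM.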

[2] = target: T2, ABL1(Q252H)-nonphosphorylated (Homo sapiens, UniProt P00519, Q252H)
T2 construct: nonphosphorylated
Method in brief: as §1

BRK = target: T3, BRK (Homo sapiens, UniProt Q13882)
T3 construct: gene PTK6
Method in brief: as §1

CDKL2 = CDKL2 (Homo sapiens, UniProt Q92772)
CDKL2, sequence (Q92772 whole entry): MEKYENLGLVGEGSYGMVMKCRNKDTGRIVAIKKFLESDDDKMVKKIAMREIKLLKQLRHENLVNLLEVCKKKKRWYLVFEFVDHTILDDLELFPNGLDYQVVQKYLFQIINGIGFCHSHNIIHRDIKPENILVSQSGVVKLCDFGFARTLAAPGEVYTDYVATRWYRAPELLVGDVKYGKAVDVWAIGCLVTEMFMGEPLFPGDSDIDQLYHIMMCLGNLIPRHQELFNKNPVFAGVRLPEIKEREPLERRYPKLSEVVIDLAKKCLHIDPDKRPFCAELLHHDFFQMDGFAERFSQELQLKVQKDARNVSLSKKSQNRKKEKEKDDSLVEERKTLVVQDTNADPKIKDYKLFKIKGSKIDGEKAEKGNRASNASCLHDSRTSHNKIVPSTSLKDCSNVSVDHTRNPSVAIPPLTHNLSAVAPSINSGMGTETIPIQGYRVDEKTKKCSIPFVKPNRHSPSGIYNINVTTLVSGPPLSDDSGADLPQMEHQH
Method in brief: as §1

CSF1R = CSF1R (Homo sapiens, UniProt P07333)
Method in brief: as §1

CSNK1G2 = CSNK1G2 (Homo sapiens, UniProt P78368)
Method in brief: as §1

DCAMKL1 = target: T4, DCAMKL1 (Homo sapiens, UniProt O15075)
T4 construct: gene DCLK1
T4 sequence (O15075 whole entry): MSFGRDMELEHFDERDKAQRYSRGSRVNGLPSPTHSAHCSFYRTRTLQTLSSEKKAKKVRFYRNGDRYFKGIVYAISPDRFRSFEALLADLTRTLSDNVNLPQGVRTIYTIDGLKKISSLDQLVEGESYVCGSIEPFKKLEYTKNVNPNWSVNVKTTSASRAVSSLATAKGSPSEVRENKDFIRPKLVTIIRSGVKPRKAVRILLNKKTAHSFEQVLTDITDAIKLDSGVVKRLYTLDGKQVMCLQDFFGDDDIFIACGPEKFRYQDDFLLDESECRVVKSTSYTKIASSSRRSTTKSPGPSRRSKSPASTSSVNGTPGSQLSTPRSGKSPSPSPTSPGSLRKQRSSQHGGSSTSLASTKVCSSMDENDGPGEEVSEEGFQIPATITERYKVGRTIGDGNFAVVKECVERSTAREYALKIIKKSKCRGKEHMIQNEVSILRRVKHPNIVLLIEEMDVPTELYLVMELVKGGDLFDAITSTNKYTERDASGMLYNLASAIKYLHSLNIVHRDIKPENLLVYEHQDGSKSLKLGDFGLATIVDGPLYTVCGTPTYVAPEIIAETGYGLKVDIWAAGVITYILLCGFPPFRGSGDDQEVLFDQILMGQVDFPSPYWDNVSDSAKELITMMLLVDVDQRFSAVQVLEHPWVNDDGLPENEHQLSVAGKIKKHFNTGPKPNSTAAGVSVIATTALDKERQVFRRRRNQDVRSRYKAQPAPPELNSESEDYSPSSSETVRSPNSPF
Method in brief: as §1

EIF2AK1 = EIF2AK1 (Homo sapiens, UniProt Q9BQI3)
Method in brief: as §1

EPHA6 = EPHA6 (Homo sapiens, UniProt Q9UF33)
EPHA6, sequence (Q9UF33 whole entry): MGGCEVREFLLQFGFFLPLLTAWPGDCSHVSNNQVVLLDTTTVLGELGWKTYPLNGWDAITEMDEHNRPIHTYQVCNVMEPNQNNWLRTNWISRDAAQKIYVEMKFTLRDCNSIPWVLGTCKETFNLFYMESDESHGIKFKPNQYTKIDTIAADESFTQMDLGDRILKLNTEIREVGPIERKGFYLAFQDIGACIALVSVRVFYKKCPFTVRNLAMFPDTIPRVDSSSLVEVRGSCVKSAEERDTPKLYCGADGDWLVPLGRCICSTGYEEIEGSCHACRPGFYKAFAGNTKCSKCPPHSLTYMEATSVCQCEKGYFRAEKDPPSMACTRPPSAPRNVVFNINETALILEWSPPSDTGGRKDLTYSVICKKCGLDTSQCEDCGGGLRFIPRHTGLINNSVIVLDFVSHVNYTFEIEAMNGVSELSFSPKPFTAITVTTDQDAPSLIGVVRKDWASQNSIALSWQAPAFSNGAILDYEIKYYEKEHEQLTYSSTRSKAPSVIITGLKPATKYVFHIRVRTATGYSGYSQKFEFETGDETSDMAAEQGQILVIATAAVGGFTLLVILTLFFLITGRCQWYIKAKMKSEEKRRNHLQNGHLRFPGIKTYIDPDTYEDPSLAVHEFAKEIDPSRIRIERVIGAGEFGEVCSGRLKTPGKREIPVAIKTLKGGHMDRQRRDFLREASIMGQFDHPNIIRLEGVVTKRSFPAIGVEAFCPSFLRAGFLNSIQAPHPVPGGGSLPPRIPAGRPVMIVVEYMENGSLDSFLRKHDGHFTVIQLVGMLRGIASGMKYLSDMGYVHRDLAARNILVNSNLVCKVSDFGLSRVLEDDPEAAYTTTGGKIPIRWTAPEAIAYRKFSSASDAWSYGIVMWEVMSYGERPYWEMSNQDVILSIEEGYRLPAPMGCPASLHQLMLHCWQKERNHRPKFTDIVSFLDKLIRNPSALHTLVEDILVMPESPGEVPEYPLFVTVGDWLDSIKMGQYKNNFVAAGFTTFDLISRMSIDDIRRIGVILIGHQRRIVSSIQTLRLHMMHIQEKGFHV
Method in brief: as §1

ERBB2 = ERBB2 (Homo sapiens, UniProt P04626)
ERBB2, sequence (P04626 whole entry): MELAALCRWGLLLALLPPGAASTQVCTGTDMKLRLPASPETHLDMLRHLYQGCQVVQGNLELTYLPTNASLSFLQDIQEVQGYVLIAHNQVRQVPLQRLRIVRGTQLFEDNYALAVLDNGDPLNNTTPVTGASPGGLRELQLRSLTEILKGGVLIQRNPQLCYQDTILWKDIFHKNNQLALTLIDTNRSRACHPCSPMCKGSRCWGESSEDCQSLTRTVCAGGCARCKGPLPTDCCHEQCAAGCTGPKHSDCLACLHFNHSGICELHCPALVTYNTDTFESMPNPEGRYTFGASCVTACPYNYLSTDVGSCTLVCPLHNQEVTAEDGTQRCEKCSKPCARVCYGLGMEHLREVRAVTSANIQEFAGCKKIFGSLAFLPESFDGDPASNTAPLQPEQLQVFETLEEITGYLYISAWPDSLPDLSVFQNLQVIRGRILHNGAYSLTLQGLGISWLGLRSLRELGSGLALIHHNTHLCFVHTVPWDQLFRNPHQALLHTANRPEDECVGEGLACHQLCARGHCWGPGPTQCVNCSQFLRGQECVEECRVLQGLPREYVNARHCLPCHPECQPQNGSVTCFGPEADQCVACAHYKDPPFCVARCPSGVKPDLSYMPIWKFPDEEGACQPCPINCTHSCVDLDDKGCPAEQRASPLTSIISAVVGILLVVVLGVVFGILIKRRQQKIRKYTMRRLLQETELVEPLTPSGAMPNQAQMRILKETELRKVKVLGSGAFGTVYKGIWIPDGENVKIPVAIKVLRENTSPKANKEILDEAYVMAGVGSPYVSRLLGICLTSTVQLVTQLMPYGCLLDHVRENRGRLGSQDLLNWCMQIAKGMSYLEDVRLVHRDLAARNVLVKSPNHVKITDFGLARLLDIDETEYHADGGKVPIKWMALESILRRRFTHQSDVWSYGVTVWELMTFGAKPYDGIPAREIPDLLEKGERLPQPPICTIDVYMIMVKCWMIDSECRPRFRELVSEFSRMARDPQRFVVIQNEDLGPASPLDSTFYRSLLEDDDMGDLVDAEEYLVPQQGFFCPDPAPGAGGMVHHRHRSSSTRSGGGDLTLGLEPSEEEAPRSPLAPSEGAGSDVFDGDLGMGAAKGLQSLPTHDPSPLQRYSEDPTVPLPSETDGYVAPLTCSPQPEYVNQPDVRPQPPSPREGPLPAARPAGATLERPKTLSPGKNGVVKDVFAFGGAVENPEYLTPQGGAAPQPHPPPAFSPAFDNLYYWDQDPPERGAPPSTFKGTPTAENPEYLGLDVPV
Method in brief: as §1

ERK2 = target: T5, ERK2 (Homo sapiens, UniProt P28482)
T5 construct: gene MAPK1
Method in brief: as §1

FGR = FGR (Homo sapiens, UniProt P09769)
Method in brief: as §1

FLT3(ITD) = FLT3(ITD) (Homo sapiens, UniProt P36888, ITD)
FLT3(ITD), sequence (P36888 564-993, change not shown): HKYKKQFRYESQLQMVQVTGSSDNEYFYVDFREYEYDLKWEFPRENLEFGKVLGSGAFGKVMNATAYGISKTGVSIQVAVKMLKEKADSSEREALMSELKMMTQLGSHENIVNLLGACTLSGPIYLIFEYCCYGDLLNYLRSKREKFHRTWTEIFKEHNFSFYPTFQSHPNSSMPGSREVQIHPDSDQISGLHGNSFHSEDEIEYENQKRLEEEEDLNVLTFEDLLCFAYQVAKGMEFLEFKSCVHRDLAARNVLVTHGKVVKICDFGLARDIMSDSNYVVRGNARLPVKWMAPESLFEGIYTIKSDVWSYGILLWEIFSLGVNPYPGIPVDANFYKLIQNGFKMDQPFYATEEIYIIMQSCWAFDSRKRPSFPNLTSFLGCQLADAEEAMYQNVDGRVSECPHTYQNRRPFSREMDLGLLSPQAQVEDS
Method in brief: as §1

ICK = target: T6, ICK (Homo sapiens, UniProt Q9UPZ9)
T6 construct: gene CILK1
Method in brief: as §1

INSRR = INSRR (Homo sapiens, UniProt P14616)
Method in brief: as §1

LATS2 = LATS2 (Homo sapiens, UniProt Q9NRM7)
LATS2, sequence (Q9NRM7 whole entry): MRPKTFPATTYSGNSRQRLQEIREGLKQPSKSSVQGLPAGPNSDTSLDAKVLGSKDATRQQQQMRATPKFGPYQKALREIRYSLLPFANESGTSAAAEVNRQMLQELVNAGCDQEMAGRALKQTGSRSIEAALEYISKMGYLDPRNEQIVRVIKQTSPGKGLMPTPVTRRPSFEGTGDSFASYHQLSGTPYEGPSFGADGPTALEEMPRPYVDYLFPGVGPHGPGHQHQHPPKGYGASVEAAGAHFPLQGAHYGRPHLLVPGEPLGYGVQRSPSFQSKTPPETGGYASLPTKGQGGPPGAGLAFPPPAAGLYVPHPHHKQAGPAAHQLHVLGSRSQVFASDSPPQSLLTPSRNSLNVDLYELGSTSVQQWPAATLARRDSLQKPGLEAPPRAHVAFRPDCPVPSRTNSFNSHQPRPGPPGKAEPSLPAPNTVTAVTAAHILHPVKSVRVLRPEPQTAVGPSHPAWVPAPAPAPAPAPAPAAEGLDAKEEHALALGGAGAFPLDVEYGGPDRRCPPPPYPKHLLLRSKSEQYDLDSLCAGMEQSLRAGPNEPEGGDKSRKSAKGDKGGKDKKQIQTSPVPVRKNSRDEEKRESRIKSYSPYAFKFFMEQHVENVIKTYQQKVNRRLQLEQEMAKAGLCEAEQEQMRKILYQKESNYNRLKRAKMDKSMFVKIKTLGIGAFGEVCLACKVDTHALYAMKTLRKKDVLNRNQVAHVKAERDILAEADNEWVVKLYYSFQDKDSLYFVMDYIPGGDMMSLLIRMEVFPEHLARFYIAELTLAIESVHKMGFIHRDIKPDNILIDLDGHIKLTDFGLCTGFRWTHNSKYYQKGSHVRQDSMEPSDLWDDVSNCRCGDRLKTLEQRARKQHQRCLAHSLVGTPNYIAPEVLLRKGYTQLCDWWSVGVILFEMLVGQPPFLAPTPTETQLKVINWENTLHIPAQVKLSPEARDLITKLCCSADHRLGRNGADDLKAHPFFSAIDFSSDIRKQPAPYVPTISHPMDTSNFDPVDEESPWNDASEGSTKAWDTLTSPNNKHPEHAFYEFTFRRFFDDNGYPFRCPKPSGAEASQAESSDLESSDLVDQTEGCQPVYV
Method in brief: as §1

PAK2 = PAK2 (Homo sapiens, UniProt Q13177)
Method in brief: as §1

PAK4 = PAK4 (Homo sapiens, UniProt O96013)
Method in brief: as §1

PIK3CA(E545A) = PIK3CA(E545A) (Homo sapiens, UniProt P42336, E545A)
Method in brief: as §1

PKAC-beta = target: T7, PKAC-beta (Homo sapiens, UniProt P22694)
T7 construct: gene PRKACB
Method in brief: as §1

PRKCI = PRKCI (Homo sapiens, UniProt P41743)
Method in brief: as §1

PRKX = PRKX (Homo sapiens, UniProt P51817)
Method in brief: as §1

SRPK1 = SRPK1 (Homo sapiens, UniProt Q96SB4)
Method in brief: as §1

TNK1 = TNK1 (Homo sapiens, UniProt Q13470)
Method in brief: as §1

CNS(=O)(=O)c1ccc(N(C)C)c(Nc2ncnc3cc(OC)c(OC)cc23)c1 [compound 7, 3-((6,7-dimethoxyquinazolin-4-yl)amino)-4-(dimethylamino)-N-methylbenzenesulfonamide]
inhibition at 1 µM [1]: 29% | inhibition at 1 µM [2]: 50% | inhibition at 1 µM (BRK): 0% | inhibition at 1 µM (CDKL2): 0% | inhibition at 1 µM (CSF1R): 22% | inhibition at 1 µM (CSNK1G2): 0% | inhibition at 1 µM (DCAMKL1): 12% | inhibition at 1 µM (EIF2AK1): 0% | inhibition at 1 µM (EPHA6): 0% | inhibition at 1 µM (ERBB2): 0% | inhibition at 1 µM (ERK2): 0% | inhibition at 1 µM (FGR): 0% | inhibition at 1 µM (FLT3(ITD)): 0% | inhibition at 1 µM (ICK): 7% | inhibition at 1 µM (INSRR): 13% | inhibition at 1 µM (LATS2): 0% | inhibition at 1 µM (PAK2): 0% | inhibition at 1 µM (PAK4): 0% | inhibition at 1 µM (PIK3CA(E545A)): 0% | inhibition at 1 µM (PKAC-beta): 0% | inhibition at 1 µM (PRKCI): 5% | inhibition at 1 µM (PRKX): 0% | inhibition at 1 µM (SRPK1): 0% | inhibition at 1 µM (TNK1): 37%
